Molecules are shown by their SMILES. “And” between values parts separate entries of the source, which are not always exact repeats. Equal entries are not always repeated.

The text below walks through data of PubChem BioAssay AID342 (DTP/NCI, 2004).

In this experiment the test system is Swiss mice, Sarcoma 180 sc, mean tumor weight T/C. As to the kind of experiment: NCI In Vivo Anticancer Drug Screen. Data for tumor model Sarcoma 180 (subcutaneous) in Swiss mice. Particulars: endpoint: mean tumor weight, higher = larger tumour. In outline: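 Tumor-bearing mice, transplantable tumor; readout survival or tumor size; result = T/C, treated vs vehicle control.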

In the case of `CO[C@@H]1[C@@H](OC2OC(C)C(OC3CC(C)(O)C(OC(=O)CC(C)C)C(C)O3)C(N(C)C)C2O)[C@@H](CC=O)C[C@@H](C)C(=O)/C=C/C2O[C@H]2C[C@@H](C)OC(=O)C[C@H]1OC(C)=O` (some centres not stated), the T/C by setting is: (dose: 25.0 mg/kg/injection, schedule: Q#A X014 (ip), vehicle: methylcellulose (MC)) 86 % of control; (dose: 50.0 mg/kg/injection, schedule: Q#A X014 (ip), vehicle: methylcellulose (MC)) 116 % of control; (dose: 75.0 mg/kg/injection, schedule: Q#A X014 (ip), vehicle: methylcellulose (MC)) 88 % of control; (dose: 100.0 mg/kg/injection, schedule: Q#A X014 (ip), vehicle: methylcellulose (MC)) 95 % of control; (dose: 100.0 mg/kg/injection, schedule: Q#A X014 (ip), vehicle: other) 96 % of control; (dose: 125.0 mg/kg/injection, schedule: Q#A X014 (ip), vehicle: methylcellulose (MC)) 75 % of control. The T/C reads like this: (dose: 125.0 mg/kg/injection, schedule: Q#A X014 (ip), vehicle: other) 113 % of control; (dose: 150.0 mg/kg/injection, schedule: Q#A X014 (ip), vehicle: other) 65 % of control; (dose: 175.0 mg/kg/injection, schedule: Q#A X014 (ip), vehicle: other) 57 % of control.
`c1ccc2cc3c(cc2c1)Cn1c-3nc2ccccc21`: the T/C is 76 % of control (dose: 25.0 mg/kg/injection, schedule: Q01DX007 (ip), vehicle: carboxymethylcellulose (CMC)); 86 % of control (dose: 50.0 mg/kg/injection, schedule: Q01DX007 (ip), vehicle: carboxymethylcellulose (CMC)); 53 % of control and 57 % of control (dose: 200.0 mg/kg/injection, schedule: Q01DX007 (ip), vehicle: carboxymethylcellulose (CMC)); 54 % of control (dose: 400.0 mg/kg/injection, schedule: Q01DX007 (ip), vehicle: carboxymethylcellulose (CMC)); 27 % of control and 34 % of control (dose: 500.0 mg/kg/injection, schedule: Q01DX007 (ip), vehicle: carboxymethylcellulose (CMC)); 38 % of control (dose: 800.0 mg/kg/injection, schedule: Q01DX007 (ip), vehicle: carboxymethylcellulose (CMC)).
Regarding `CCOC(=O)NP(=O)(N1CC1)N1CC1`, the T/C was 113 % of control (dose: 937.0 micrograms/kg/injection, schedule: Q01DX007 (ip), vehicle: carboxymethylcellulose (CMC)); 100 % of control (dose: 1875.0 micrograms/kg/injection, schedule: Q01DX007 (ip), vehicle: carboxymethylcellulose (CMC)); 74 % of control (dose: 7500.0 micrograms/kg/injection, schedule: Q01DX007 (ip), vehicle: carboxymethylcellulose (CMC)).
Consider `CC(=O)OCC(=O)[C@@]1(O)CC[C@H]2[C@@H]3C[C@@H](C)C4=CC(=O)C=C[C@]4(C)[C@H]3[C@@H](O)C[C@@]21C`, for which the T/C (dose: 32.0 mg/kg/injection, schedule: Q01DX007 (sc), vehicle: steriod suspending solution) was 51 % of control; the T/C (dose: 49.0 mg/kg/injection, schedule: Q01DX007 (sc), vehicle: steriod suspending solution) was 56 % of control; the T/C (dose: 73.0 mg/kg/injection, schedule: Q01DX007 (sc), vehicle: steriod suspending solution) is 40 % of control and 55 % of control; the T/C (dose: 109.0 mg/kg/injection, schedule: Q01DX007 (sc), vehicle: steriod suspending solution) was 48 % of control; the T/C (dose: 111.0 mg/kg/injection, schedule: Q01DX007 (sc), vehicle: steriod suspending solution) was 31 % of control; the T/C (dose: 165.0 mg/kg/injection, schedule: Q01DX007 (sc), vehicle: steriod suspending solution) was 36 % of control and 47 % of control. In addition, the T/C by setting is: (dose: 248.0 mg/kg/injection, schedule: Q01DX007 (sc), vehicle: steriod suspending solution) 35 % of control; (dose: 251.0 mg/kg/injection, schedule: Q01DX007 (sc), vehicle: steriod suspending solution) 33 % of control; (dose: 375.0 mg/kg/injection, schedule: Q01DX007 (sc), vehicle: steriod suspending solution) 31 % of control.
For `CO[C@H]1C[C@H](O[C@H]2CC[C@]3(C=O)[C@H]4CC[C@]5(C)[C@@H](C6=CC(=O)OC6)CC[C@]5(O)[C@@H]4CC[C@]3(O)C2)O[C@H](C)[C@H]1O`, the T/C reads like this: (dose: 2.5 mg/kg/injection, schedule: Q01DX007 (sc), vehicle: saline) 86 % of control; (dose: 5.0 mg/kg/injection, schedule: Q01DX007 (sc), vehicle: saline) 62 % of control.
`C1OC1C1CO1` (configuration not stated): the T/C runs as follows: (dose: 4.5 mg/kg/injection, schedule: Q01DX007 (ip), vehicle: carboxymethylcellulose (CMC)) 68 % of control; (dose: 4.63 mg/kg/injection, schedule: Q01DX007 (ip), vehicle: carboxymethylcellulose (CMC)) 99 % of control; (dose: 9.0 mg/kg/injection, schedule: Q01DX007 (ip), vehicle: carboxymethylcellulose (CMC)) 97 % of control; (dose: 9.25 mg/kg/injection, schedule: Q01DX007 (ip), vehicle: carboxymethylcellulose (CMC)) 74 % of control; (dose: 13.76 mg/kg/injection, schedule: Q01DX007 (ip), vehicle: carboxymethylcellulose (CMC)) 80 % of control; (dose: 17.2 mg/kg/injection, schedule: Q01DX007 (ip), vehicle: carboxymethylcellulose (CMC)) 107 % of control. The T/C runs as follows: (dose: 18.0 mg/kg/injection, schedule: Q01DX007 (ip), vehicle: carboxymethylcellulose (CMC)) 53 % of control; (dose: 18.5 mg/kg/injection, schedule: Q01DX007 (ip), vehicle: carboxymethylcellulose (CMC)) 71 % of control; (dose: 22.93 mg/kg/injection, schedule: Q01DX007 (ip), vehicle: carboxymethylcellulose (CMC)) 82 % of control; (dose: 34.4 mg/kg/injection, schedule: Q01DX007 (ip), vehicle: carboxymethylcellulose (CMC)) 80 % of control.
`CN1C=c2c3c(ccc2=C2C=CC4C=C5OCOC5=CC4=C21)OCO3` (configuration not stated): the T/C by setting is: (dose: 1.3 mg/kg/injection, schedule: Q#A X014 (ip), vehicle: saline) 105 % of control; (dose: 2.0 mg/kg/injection, schedule: Q#A X014 (ip), vehicle: saline) 82 % of control; (dose: 3.0 mg/kg/injection, schedule: Q#A X014 (ip), vehicle: saline) 79 % of control and 96 % of control; (dose: 10.0 mg/kg/injection, schedule: Q#A X014 (ip), vehicle: saline) 28 % of control; (dose: 12.0 mg/kg/injection, schedule: Q#A X014 (oral), vehicle: saline) 84 % of control; (dose: 18.0 mg/kg/injection, schedule: Q#A X014 (oral), vehicle: saline) 70 % of control. In addition, the T/C by setting is: (dose: 27.0 mg/kg/injection, schedule: Q#A X014 (oral), vehicle: saline) 73 % of control; (dose: 60.0 mg/kg/injection, schedule: Q#A X014 (oral), vehicle: saline) 53 % of control.

As a reminder, the T/C is the result in the treated group divided by that in the control group, in per cent.
